Results: ChEMBL document CHEMBL5365521, “Discovery of the Potent and Selective Inhaled Janus Kinase 1 Inhibitor AZD4604 and Its Preclinical Characterization” (J Med Chem, 2023)
In brackets after ≈: the same amount, converted by molar mass. Activity calls are given as the source filed them. No cut-off for these calls is given here.

Legend:
[1] = Toxicity in human naive Th2 cell assessed as reduction in cell viability at 1 to 10000 nM; type: cell-based; conditions: 10 µM, dose 1-10000 nM
[2] = Toxicity in human CD4+ T cell assessed as reduction in cell viability measured after 5 days by eFluor780 staining based flow cytometry analysis; conditions: 120 h, dose 1-10000 nM, time 5 day
Th17 = assay: Inhibition of human memory-derived Th17 cell differentiation assessed as decrease in IL-17 production measured after 5 days by MSD assay; type: functional, cell-based; conditions: time 5.0 day
[3] = target: T1, Tyrosine-protein kinase JAK1 (Homo sapiens, UniProt P23458); assay: Inhibition of JAK1 in human CD14-positive cell monocytes isolated from human PBMC assessed as reduction in mature dendritic phenotype by measuring CD11c expression level at 100 nM measured after 5 days by CD11c PE-CF594 staining based flow cytometry analysis; conditions: time 5.0 day
T1 sequence (P23458 whole entry): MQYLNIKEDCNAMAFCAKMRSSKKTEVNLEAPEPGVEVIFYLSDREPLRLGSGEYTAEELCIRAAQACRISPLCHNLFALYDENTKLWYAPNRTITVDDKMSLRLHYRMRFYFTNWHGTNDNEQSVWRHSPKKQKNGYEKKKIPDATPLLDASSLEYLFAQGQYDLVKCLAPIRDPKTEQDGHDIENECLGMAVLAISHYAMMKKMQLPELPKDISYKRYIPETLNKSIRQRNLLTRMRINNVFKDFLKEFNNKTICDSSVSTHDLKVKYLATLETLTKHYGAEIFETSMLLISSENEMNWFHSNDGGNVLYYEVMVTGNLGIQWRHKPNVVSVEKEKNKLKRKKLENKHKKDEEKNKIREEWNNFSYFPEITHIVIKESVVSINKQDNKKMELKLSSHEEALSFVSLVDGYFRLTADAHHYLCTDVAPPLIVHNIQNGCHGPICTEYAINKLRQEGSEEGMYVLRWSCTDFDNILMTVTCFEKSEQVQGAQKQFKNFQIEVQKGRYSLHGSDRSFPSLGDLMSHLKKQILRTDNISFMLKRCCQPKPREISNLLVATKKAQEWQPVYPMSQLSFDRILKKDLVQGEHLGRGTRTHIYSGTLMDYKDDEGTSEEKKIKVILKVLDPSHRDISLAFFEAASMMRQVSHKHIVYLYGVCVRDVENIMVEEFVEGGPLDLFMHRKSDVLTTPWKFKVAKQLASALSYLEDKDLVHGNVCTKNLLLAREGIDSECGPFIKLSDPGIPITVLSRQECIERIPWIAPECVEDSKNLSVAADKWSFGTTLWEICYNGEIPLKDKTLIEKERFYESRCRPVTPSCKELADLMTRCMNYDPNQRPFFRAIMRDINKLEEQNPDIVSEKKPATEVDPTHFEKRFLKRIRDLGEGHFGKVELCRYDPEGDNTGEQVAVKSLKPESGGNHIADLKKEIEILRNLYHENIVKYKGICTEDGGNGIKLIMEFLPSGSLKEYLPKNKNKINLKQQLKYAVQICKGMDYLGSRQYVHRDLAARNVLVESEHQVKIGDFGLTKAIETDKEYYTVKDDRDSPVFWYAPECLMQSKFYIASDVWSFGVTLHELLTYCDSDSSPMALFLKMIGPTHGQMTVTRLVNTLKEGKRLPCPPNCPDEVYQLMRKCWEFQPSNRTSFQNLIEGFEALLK

Th2 cell [4] = assay: Inhibition of human naive Th2 cell differentiation assessed as decrease in IL-13 production measured after 5 days by MSD assay; type: functional, cell-based; conditions: time 5.0 day
Th2 cell [5] = assay: Inhibition of human naive Th2 cell differentiation assessed as decrease in IL-5 production measured after 5 days by MSD assay; type: functional, cell-based; conditions: time 5.0 day
CD4+ T cell = assay: Antiinflammatory activity in human CD4+ T cell assessed as reduction in CD25 expression measured after 5 days by eFluor780 staining based flow cytometry analysis; type: functional; conditions: dose 1-10000 nM, time 5.0 day
[6] = Toxicity in human memory-derived Th17 cells assessed as reduction in cell viability at 1 to 10000 nM; type: cell-based; conditions: th17, 10 µM, dose 1-10000 nM
Th2 cell [7] = assay: Inhibition of human naive Th2 cell differentiation assessed as decrease in IL-4 production measured after 5 days by MSD assay; type: functional, cell-based; conditions: dose 1-10000 nM, time 5.0 day
[8] = Inhibition of JAK/STAT signaling pathway in human CD4+ T cell assessed as inhibition of IL-4 stimulated STAT6 phosphorylation preincubated for 20 to 60 mins followed by IL-4 stimulation measured after 15 mins by flow cytometry analysis; type: cell-based
Th1 cell = assay: Inhibition of human naive Th1 cell differentiation assessed as decrease in IFNg production measured after 5 days by MSD assay; type: functional, cell-based; conditions: dose 1-10000 nM, time 5.0 day
[9] = Toxicity in human naive Th1 cell assessed as reduction in cell viability at 1 to 10000 nM; type: cell-based; conditions: 10 µM, dose 1-10000 nM
CD14-positive cell = assay: (§1) Inhibition of JAK/STAT signaling pathway in human CD14-positive cell monocytes isolated from human PBMC assessed as inhibition of IL-13 stimulated STAT6 phosphorylation preincubated for 20 to 60 mins followed by IL-13 stimulation measured after 15 mins by flow cytometry analysis; type: cell-based; conditions: time 35-75 min
[10] = target: T1, Tyrosine-protein kinase JAK1; assay: Inhibition of JAK1 in human CD14-positive cell monocytes isolated from human PBMC assessed as reduction in mature dendritic phenotype by measuring CD14 expression level at 100 nM measured after 5 days by CD14 APC staining based flow cytometry analysis; conditions: time 5.0 day
[11] = Distribution coefficient between 1-Octanol and aqueous phosphate buffer, logD of the compound at pH 7.4 by shake-flask method; type: physicochemical
[12] = Plasma protein binding in human assessed as free fraction; type: ADME, cell-free
[13] = Inhibition of JAK/STAT signaling pathway in human U-937 cells assessed as inhibition of IL-13 stimulated STAT6 phosphorylation; type: cell-based
[14] = target: Tyrosine-protein kinase JAK2 (Homo sapiens, UniProt O60674); assay: Inhibition of N-terminal GST-tagged human recombinant JAK2 (831 to 1132 residues) expressed in insect cells using 5FAM-GEEPLYWSFPAKKK-NH2 peptide as substrate incubated for 10 mins measured after 90 mins in presence of ATP by caliper mobility shift assay
Sequence of Tyrosine-protein kinase JAK2 (O60674 whole entry, the tested form may be a part): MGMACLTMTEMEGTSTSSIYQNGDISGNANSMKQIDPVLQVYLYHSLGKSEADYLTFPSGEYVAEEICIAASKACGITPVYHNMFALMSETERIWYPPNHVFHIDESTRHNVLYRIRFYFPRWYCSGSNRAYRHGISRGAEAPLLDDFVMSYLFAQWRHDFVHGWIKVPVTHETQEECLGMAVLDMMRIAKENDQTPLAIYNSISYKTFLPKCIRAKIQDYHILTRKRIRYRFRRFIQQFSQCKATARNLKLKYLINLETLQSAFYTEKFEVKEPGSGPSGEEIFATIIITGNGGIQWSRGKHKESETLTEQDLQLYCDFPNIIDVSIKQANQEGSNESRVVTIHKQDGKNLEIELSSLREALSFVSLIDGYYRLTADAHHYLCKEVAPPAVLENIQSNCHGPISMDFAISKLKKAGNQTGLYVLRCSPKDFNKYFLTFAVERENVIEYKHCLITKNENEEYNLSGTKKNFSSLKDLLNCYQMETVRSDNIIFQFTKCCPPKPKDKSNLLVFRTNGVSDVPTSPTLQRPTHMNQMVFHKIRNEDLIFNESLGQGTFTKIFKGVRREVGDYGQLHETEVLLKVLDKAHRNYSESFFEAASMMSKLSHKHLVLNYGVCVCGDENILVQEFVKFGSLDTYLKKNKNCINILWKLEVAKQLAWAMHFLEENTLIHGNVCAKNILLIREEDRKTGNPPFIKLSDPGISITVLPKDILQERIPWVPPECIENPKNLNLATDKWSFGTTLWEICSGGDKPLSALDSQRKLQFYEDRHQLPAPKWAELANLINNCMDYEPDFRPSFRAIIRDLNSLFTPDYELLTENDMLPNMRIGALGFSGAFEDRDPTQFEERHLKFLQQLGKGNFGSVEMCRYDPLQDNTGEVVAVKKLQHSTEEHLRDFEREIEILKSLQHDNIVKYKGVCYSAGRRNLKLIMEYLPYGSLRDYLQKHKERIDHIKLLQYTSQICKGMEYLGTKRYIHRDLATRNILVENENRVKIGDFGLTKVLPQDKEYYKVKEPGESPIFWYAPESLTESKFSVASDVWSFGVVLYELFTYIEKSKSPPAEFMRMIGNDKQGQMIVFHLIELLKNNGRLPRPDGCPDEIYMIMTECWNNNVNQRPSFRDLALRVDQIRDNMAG

[15] = target: T1, Tyrosine-protein kinase JAK1; assay: Inhibition of N-terminal GST-tagged human recombinant JAK1 (866 to 1154 residues) expressed in insect cells using FITC-C6-KKHTDDGYMPMSPGVA-NH peptide as substrate incubated for 10 mins measured after 90 mins in presence of ATP by caliper mobility shift assay
[16] = Inhibition of JAK/STAT signaling pathway in human U-937 cells assessed as inhibition of IL-4 stimulated STAT6 phosphorylation; type: cell-based
[17] = target: T2, Tyrosine-protein kinase JAK3 (Homo sapiens, UniProt P52333); assay: Inhibition of N-terminal GST-tagged human recombinant JAK3 (781 to 1124 residues) expressed in insect cells using 5FAM-GEEPLYWSFPAKKK-NH2 peptide as substrate incubated for 10 mins measured after 90 mins in presence of ATP by caliper mobility shift assay
T2 sequence (P52333 whole entry): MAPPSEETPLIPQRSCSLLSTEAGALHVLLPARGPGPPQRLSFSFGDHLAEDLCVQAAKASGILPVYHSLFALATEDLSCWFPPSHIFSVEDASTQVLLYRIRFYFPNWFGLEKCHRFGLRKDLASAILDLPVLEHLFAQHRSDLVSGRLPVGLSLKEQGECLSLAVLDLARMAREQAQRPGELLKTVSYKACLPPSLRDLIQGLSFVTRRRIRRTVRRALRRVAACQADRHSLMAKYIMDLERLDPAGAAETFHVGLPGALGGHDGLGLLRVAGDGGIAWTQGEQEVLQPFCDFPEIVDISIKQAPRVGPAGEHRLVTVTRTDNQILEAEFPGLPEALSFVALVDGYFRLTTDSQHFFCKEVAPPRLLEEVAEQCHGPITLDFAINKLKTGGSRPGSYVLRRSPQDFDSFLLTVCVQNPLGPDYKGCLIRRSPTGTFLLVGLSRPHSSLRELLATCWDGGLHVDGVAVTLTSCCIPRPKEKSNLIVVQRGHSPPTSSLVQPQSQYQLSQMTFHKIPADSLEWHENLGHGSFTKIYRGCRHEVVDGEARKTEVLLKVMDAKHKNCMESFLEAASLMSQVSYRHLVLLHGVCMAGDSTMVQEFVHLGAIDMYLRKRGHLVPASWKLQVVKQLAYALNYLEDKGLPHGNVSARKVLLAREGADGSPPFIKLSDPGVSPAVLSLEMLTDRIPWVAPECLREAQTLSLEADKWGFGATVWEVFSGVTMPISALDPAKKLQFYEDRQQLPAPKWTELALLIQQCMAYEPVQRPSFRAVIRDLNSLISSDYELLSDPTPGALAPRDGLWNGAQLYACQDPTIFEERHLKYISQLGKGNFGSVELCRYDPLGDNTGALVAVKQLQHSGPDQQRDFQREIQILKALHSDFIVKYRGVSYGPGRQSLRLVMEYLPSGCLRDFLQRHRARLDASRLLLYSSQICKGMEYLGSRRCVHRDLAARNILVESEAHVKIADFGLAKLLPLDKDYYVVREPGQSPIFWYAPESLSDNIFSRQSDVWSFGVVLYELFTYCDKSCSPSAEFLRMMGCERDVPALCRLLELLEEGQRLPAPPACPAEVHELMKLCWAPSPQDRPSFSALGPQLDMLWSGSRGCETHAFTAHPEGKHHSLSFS

[18] = Solubility in phosphate buffer at pH 7.4; type: physicochemical
[19] = AUC(0 to 24 hrs) in rat at 0.020 micromol/kg, IT; type: ADME; design: dose 0.02 µmol/kg, route it; conditions: in vivo, 0.02 µmol/kg
[20] = Drug uptake in lung of rat at 0.020 micromol/kg, IT; type: ADME, tissue-based; conditions: in vivo, other, dose 0.02 µmol/kg
[21] = Thermodynamic solubility of the compound in phosphate buffer at pH 7.4 measured after 24 hrs by HPLC-MS analysis; type: physicochemical; conditions: read-out: Therm_solubility
[22] = Apparent permeability of compound across apical to basolateral side in human Caco-2 cells at pH 7.4; type: ADME, cell-based; conditions: Caco-2, pH 7.4
[23] = Thermodynamic solubility of the compound in phosphate buffer at pH 6.5 measured after 24 hrs by HPLC-MS analysis; type: physicochemical; conditions: read-out: Therm_solubility
[24] = Terminal half life in Han Wistar rat at 1 mg/kg, po; type: ADME, organism-based; conditions: in vivo, read-out: beta t1/2 (converted)
[25] = Drug uptake in lung of rat at 0.06 to 24.79 microg/kg via inhalation measured upto 24 hrs by LC-MS/MS analysis; type: ADME, tissue-based; conditions: in vivo, inhaled_or_intranasal, dose 0.06-24.79 µg/kg
[26] = Metabolic stability in human hepatocyte assessed as intrinsic clearance measured per 10^6 cells; type: ADME, cell-based; conditions: hepatocytes, read-out: CLH
[27] = Inhibition of JAK/STAT signaling pathway in human CD14-positive cell monocytes isolated from human PBMC assessed as inhibition of IL-4 stimulated STAT6 phosphorylation preincubated for 20 to 60 mins followed by IL-4 stimulation measured after 15 mins by flow cytometry analysis; type: cell-based
[28] = target: Non-receptor tyrosine-protein kinase TYK2 (Homo sapiens, UniProt P29597); assay: Inhibition of GST-tagged human recombinant TYK2 (833 to 1187 residues) expressed in insect cells
Sequence of Non-receptor tyrosine-protein kinase TYK2 (P29597 whole entry, the tested form may be a part): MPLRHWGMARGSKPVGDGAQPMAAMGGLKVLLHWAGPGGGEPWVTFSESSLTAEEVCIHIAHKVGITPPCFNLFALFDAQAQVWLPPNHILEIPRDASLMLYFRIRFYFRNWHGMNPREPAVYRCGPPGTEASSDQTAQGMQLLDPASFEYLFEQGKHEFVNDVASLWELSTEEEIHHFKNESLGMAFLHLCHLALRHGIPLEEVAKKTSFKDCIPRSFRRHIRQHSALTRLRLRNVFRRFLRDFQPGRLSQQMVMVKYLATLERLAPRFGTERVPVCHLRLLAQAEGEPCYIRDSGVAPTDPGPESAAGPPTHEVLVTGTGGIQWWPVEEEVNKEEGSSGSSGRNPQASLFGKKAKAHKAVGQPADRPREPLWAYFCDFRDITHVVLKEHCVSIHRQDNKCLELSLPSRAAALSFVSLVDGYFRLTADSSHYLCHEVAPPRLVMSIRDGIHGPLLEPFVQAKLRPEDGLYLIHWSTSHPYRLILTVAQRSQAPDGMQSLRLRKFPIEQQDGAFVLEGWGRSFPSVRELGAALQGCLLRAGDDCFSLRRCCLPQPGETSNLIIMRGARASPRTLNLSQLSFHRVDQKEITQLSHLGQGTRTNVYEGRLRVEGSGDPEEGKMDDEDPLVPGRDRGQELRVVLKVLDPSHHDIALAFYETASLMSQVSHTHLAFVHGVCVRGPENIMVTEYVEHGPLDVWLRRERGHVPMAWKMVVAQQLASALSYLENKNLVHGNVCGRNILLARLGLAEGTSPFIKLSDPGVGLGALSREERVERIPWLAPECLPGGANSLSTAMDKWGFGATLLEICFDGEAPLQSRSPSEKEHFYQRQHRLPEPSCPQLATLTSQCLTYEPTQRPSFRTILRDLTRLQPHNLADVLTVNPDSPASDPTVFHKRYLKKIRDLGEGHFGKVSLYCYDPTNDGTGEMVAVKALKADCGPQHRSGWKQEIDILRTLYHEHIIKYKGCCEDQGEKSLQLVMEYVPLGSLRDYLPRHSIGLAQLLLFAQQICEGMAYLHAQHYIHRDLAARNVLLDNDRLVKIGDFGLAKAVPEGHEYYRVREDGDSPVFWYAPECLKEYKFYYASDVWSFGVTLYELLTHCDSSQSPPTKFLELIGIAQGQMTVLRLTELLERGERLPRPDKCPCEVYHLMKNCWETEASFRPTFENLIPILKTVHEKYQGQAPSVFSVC

[29] = Volume of distribution at steady state in Han Wistar rat at 1 mg/kg, po or 0.5 mg/kg, iv; type: ADME, organism-based; conditions: in vivo
[30] = Metabolic stability in rat hepatocyte assessed as intrinsic clearance measured per 10^6 cells; type: ADME, cell-based; conditions: hepatocytes, read-out: CLH
[31] = target: T1, Tyrosine-protein kinase JAK1; assay: Inhibition of JAK1 in human CD14-positive cell monocytes isolated from human PBMC assessed as reduction in dendritic cells development measured after 5 days by flow cytometry analysis; type: cell-based; conditions: dose 10-1000 nM, time 5.0 day
[32] = Volume of distribution at steady state in Han Wistar rat at 0.5 mg/kg, iv; type: ADME, organism-based; conditions: in vivo, read-out: Vdss
[33] = target: T1, Tyrosine-protein kinase JAK1; assay: Inhibition of GST-tagged human recombinant JAK1 (866 to 1154 residues) expressed in insect cells
[34] = as §1; type: cell-based
[35] = target: T2, Tyrosine-protein kinase JAK3; assay: Inhibition of GST-tagged human recombinant JAK3 (781 to 1124 residues) expressed in insect cells
[36] = Metabolic stability in human liver microsomes assessed as intrinsic clearance; type: ADME, Microsome; conditions: read-out: CLH
[37] = Oral bioavailability in Han Wistar rat at 1 mg/kg; type: ADME, organism-based; conditions: in vivo
[38] = 1-octanol/aqueous phosphate buffer, read-out: logD

Activity [3]	IC50 [8] [nM]	Activity [10]	logD [11, 38]	fraction unbound [12]	IC50 [13] [nM]	IC50 [16] [nM]	solubility [18] [µM]	AUC(0-t) [19] [µM·h]	Drug uptake [20]	SMILES	Activity [1]	Activity [2]	inhibition (Th17)	inhibition (Th2 cell [4])	inhibition (Th2 cell [5])	Activity (CD4+ T cell)	Activity [6]	inhibition (Th2 cell [7])	inhibition (Th1 cell)	Activity [9]	further results
Active	134	Active								C=CC(=O)Nc1cc(-c2ncnc3[nH]cc(C(=O)OCC)c23)ccc1C	Non-Toxic	Dose-Dependent Effect	Dose-Dependent Effect	Dose-Dependent Effect	Dose-Dependent Effect	Dose-Dependent Effect	Non-Toxic	Dose-Dependent Effect	Dose-Dependent Effect	Non-Toxic	inhibition (CD14-positive cell): inactive
			2.7	0.06	56	42	14 (≈ 7.97 µg/mL)			C[C@H](C(=O)Nc1cccc2c(-c3nc(Nc4cccc(S(C)(=O)=O)c4F)ncc3F)c[nH]c12)N1CCN(C)CC1											IC50 [14]: 17.5 µM; IC50 [15]: 20 nM; IC50 [17]: > 30 µM
			2.4	0.09	18	13	38 (≈ 22.6 µg/mL)	0.7	Active	COC[C@H](C(=O)Nc1cccc2c(-c3nc(Nc4cccc(S(C)(=O)=O)c4F)ncc3C)c[nH]c12)N1CCN(C)CC1											solubility thermodynamic at 24 h [21]: 40 µM (≈ 23.8 µg/mL); Papp A→B [22]: 2.3 ×10⁻⁶ cm/s; solubility thermodynamic at 24 h [23]: 289 µM (≈ 172 µg/mL)
Active	21	Active		0.08		24	6 (≈ 3.6 µg/mL)	8.6	Active	COC[C@H](C(=O)Nc1cccc2c(-c3nc(Nc4cccc(S(C)(=O)=O)c4F)ncc3F)c[nH]c12)N1CCN(C)CC1 [LONDAMOCITINIB]	Non-Toxic	Dose-Dependent Effect	Dose-Dependent Effect	Dose-Dependent Effect	Dose-Dependent Effect	Dose-Dependent Effect	Non-Toxic	Dose-Dependent Effect	Dose-Dependent Effect	Non-Toxic	half-life [24]: 282 min; logD ([11]; octanol/water): 2.6; Drug uptake [25]: Active; hepatocyte CLint [26]: 1.3 µL/min/1e6 cells; IC50 [27]: 20 nM; IC50 [28]: 657 nM; Vdss [29]: 9.9 L/kg; hepatocyte CLint [30]: 6.9 µL/min/1e6 cells; solubility thermodynamic at 24 h [21]: 7 µM (≈ 4.2 µg/mL); inhibition [31]: Dose-Dependent Effect; Vd [32]: 11 L/kg; IC50 [33]: 0.54 nM; IC50 [34]: 28 nM; Papp A→B [22]: 2.7 ×10⁻⁶ cm/s; IC50 [35]: > 10 µM; microsomal CLint [36]: 25 µL/min/mg; bioavailability [37]: 44%
